Reference: US20210163489A1, “PYRAZOLOPYRIMIDINE DERIVATIVES AND THE COMPOSITIONS AND METHODS OF TREATMENT REGARDING THE SAME” (NysnoBio Ireland DAC, priority 2016, published 2021)
“And” between values parts separate entries of the source, which are not always exact repeats. Equal entries are not always repeated.

Biological target: T1, Parkin ligase (Homo sapiens, UniProt O60260)
T1 construct: Enzyme: Parkin-His tagged 203 μM (10.5 mg/ml)
T1 sequence (O60260 1-465): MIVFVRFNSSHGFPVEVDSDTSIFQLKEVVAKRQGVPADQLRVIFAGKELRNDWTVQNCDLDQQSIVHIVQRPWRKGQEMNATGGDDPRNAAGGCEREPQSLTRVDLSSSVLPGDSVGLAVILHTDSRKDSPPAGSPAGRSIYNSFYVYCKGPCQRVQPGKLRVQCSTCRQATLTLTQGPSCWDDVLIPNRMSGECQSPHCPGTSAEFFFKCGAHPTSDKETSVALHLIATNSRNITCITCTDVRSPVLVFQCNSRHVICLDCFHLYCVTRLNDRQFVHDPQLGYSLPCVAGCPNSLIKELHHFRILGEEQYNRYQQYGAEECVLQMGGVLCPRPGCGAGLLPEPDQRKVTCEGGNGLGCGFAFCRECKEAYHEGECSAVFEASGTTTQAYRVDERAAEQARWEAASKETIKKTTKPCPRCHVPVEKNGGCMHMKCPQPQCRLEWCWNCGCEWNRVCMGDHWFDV
Assay: Activity-based probe assay using an ubiquitin vinyl sulfone probe (TR-FRET)
Assay type: biochemical
Settings: for EC50: activation of heat activated Parkin, HA-Ub-VS probe, read-out: Probe Assay EC50 (μM) [Example 2]
Description: An Ubiquitin vinyl sulfone probe can be used that irreversibly binds to the active site cysteine of Parkin ligase. Covalent attachment of the probe to the Parkin can be monitored by TR-FRET. Candidate activator compounds can be identified by increasing the activity of Parkin ligase due to an increase in TR-FRET signal. Screening for activating compounds can be distinguished from the controls as follows:
100% activation signal=Heat activated Parkin+100 nM control activator in DMSO. 0% activation signal=Heat activated Parkin+DMSO only. Parkin activators can be identified by an increase of the 0% activation signal TR-FRET signal.
• Assay Plate: White 384 well plate (Corning 3572) • Enzyme: Parkin-His tagged 203 μM (10.5 mg/ml) • Probe: Ubiquitin vinyl-sulfone (HA-Ub-VS Boston Biochem U-212) • DMSO: DMSO (Sigma cat # D4540-100ML) • Reaction Buffer: 50 mM HEPES (pH 8.5), 150 mM NaCl, 0.01% Tween 20, 0.1% BSA • Detection Buffer: 50 mM HEPES (pH 8.5), 150 mM NaCl, 0.01% Tween 20, 0.1% BSA, 800 mM KF • Detection Reagent A: 2.6 nM Anti-6HIS-Eu cryptate and 40 nM Anti-HA-XL665 in detection buffer • Eu cryptate: Anti-6HIS-Eu cryptate (CisBio 61HISKLA) • XL665: Anti-HA-XL665 (CisBio 610HAXLA) Enzyme Reaction (15 min Pre Incubation Parkin with Activator Only) • Parkin: 40 nM • HA-Ub-VS Probe: 70 nM • Activator/DMSO: 2× Activator/2% DMSO • Reaction time: 60 minutes • Temperature: 22° C. • Total volume: 10 μl reaction
• Take 10 μl of Enzyme Reaction above and add 10 μl detection Reagent A under the following conditions: • Reaction time: 60 minutes • Temperature: 22° C. • Total volume: 20 μl
Assay procedure (Using HP D-300 compound dispenser and Bravo for the operation):
1) Heat activate Parkin in reaction buffer (500 μl/1.5 ml tube: Eppendorf Thermomixer 5 minutes, 400 rpm at 58° C. and put on ice until needed). 2) Load assay plate wells with 4.8 μl 84.5 nM Parkin in reaction buffer by use of Bravo. 3) Deliver 0.2 μl 200× activator candidates in DMSO by use of HP D-300 compound dispenser. Highest 200× concentration=20 μm and then twofold dilutions. 4) Spin 1000 rpm, 2 minutes, at room temp. 5) Incubate plate for 15 minutes at room temp. 6) Add 5 μl 140 nM HA-Ub-VS Probe in reaction buffer by use of Bravo. 7) Spin 1000 rpm, 2 minutes, at room temp. 8) Incubate plate for 60 minutes at room temp. 9) Add 10 μl 2.6 nM Anti-6HIS-Eu cryptate and 40 nM Anti-HA-XL665 in detection buffer. 10) Spin 1000 rpm, 2 minutes, at room temp. 11) Incubate plate for 60 minutes at room temp. 12) Read plates on Perkin Elmer Envision instrument with the following parameters:
LANCE dual laser protocol loaded into the Envision® software
Top Mirror: LANCE/DELFIA Duel/Bias (Bar code 446) Emission Filter: APC 665 EM (Bar code 205) 2nd Emission Filter: Europium 615 EM (Bar code 203) Read […] (channel 1) and 615 nm (channel 2) wavelengths on Envision®
Data Analysis: The Data can be read in CSV files. There are two tables in those CSV files, which are the values of 655 nm (channel 1) and 615 nm (channel 2) wavelengths respectively. The data is converted to an HTRF Ratio=(Channel 1/Channel 2)*10,000
The average of all the 0 uM controls (DMSO only)=BKGD (Background—0% activation). Subtract BKGD from each HTRF Ratio value=HTRF-BKGD. The average of all the […] 100 nM control activator in DMSO controls=Max (100% activation). The following equation is then used to calculate % Activation for each well/candidate as follows: % Activation=(HTRF−BKGD/Max)*100.
Graphpad Prisim was used with Transform X values: X=Log(X) and nonlinear regression (dose-response-stimulation): Log(agonist) vs Response—variable slope (four parameters) with constrains set to Bottom=0 and Top=100.

| EC50 | Parkin Ligase reaction with the Activity-based Ubiquitin vinyl sulfone probe | Structure (SMILES) |
| --- | --- | --- |
| 8.73 µM | – | Cc1nc2c(-c3ccccc3)cnn2c(O)c1Cc1ccccc1 [Compound U, 6-benzyl-5-methyl-3-phenyl-pyrazolo[1,5-a]pyrimidin-7-ol] |
| 24 µM | – | Cc1nc2c(-c3cccnc3)c(C)nn2c(S)c1Cc1ccccc1 [Compound D3] |
| 5.9 µM | – | Sc1c(Cc2ccccc2)cnc2c(-c3ccccc3)cnn12 [Compound Z, 6-benzyl-3-phenyl-pyrazolo[1,5-a]pyrimidin-7-thiol] |
| 10.7 µM | – | Cc1cc(S)n2ncc(-c3cccc(N(C)C)c3)c2n1 [UU] |
| > 100 µM | – | Cc1cc(S)n2ncc(-c3cc[nH]c(=O)c3)c2n1 [Compound A3] |
| > 100 µM | – | COc1ccccc1-c1c(C)nn2c(S)cc(C)nc12 [Compound D] |
| 27.9 µM | – | Cc1cc2nc(C)c(Cc3ccccc3)c(S)n2n1 [S] |
| 6.8 µM | – | Cc1ccc(-c2cnn3c(S)cc(C)nc23)cc1 [TT] |
| > 100 µM | – | CCc1nn2c(S)cc(C)nc2c1-c1ccc(F)cc1 [Compound I] |
| 27.3 µM | – | Cc1cc(C)c2c(n1)nn1c(S)c(Cc3ccccc3)c(C)nc21 [RR] |
| > 100 µM | – | Cc1cc(S)n2nc(C)c(-c3ccccc3)c2n1 [O] |
| > 100 µM | – | Cc1nn2c(S)cc(C(C)C)nc2c1-c1ccccc1 [H] |
| > 100 µM | – | Cc1ccc(-c2cnn3c(O)c4c(nc23)CN(C)CC4)cc1 [Compound P3] |
| 15 µM | – | Cc1nn2c(S)c(CC(C)C)cnc2c1-c1ccccc1 [Compound G3] |
| 18 µM | increases | Cc1cc(S)n2ncc(-c3ccc(F)cc3)c2n1 [Compound L, 3-(4-fluorophenyl)-5-methylpyrazolo[1,5-a]pyrimidine-7-thiol] |
| 53.5 µM | – | CC(C)(C)c1cc(O)n2ncc(-c3ccc(Cl)cc3)c2n1 [Compound G] |

| EC50 | Parkin Ligase reaction with the Activity-based Ubiquitin vinyl sulfone probe | Structure (SMILES) |
| --- | --- | --- |
| 46 µM | – | COc1ccc(Cn2ccc(-c3cnn4c(S)cc(C)nc34)cc2=O)cc1 [Compound B3] |
| 27 µM | – | Cc1nn2c(S)c3c(nc2c1-c1ccccc1)CN(C)CC3 [Compound C3] |
| > 100 µM | – | Cc1cc(O)n2nc(C)c(-c3ccc(Cl)cc3)c2n1 [M] |
| > 100 µM | – | Cc1cc(S)n2nc(C)c(-c3ccc(Cl)cc3)c2n1 [N] |
| 8.9 µM | – | COc1ccc(-c2cnn3c(S)cc(C)nc23)cc1 [SS] |
| > 100 µM | – | COc1ccc(-c2cnn3c(O)cc(C)nc23)cc1 [Compound J3] |
| 3 µM | – | Cc1cc(S)c2ncc(-c3ccc(F)cc3)n2n1 [Compound F3] |
| 35.4 µM | – | CC(C)(C)c1cc(O)n2ncc(-c3ccccc3)c2n1 [J] |
| > 100 µM | – | Cc1cc(S)n2ncc(-c3cnn(C)c3)c2n1 [VV] |
| 4 µM | – | Cc1cc(C)c2c(n1)nn1c(S)cc(C)nc21 [Compound E] |
| > 100 µM | – | Cc1cc(O)n2ncc(-c3ccc(F)cc3)c2n1 [PP] |
| > 100 µM | – | CCCc1cc(S)n2nc(C)c(-c3ccccc3)c2n1 [Compound B] |
| 5.8 µM | – | Cc1nc2c(-c3ccccc3)cnn2c(S)c1Cc1ccccc1 [Compound CC, 6-benzyl-5-methyl-3-phenyl-pyrazolo[1,5-a]pyrimidin-7-thiol] |
| 51 µM | – | Cc1ccc(-c2cnn3c(O)cc(C)nc23)cc1 [Compound H3] |
| 96.3 µM | – | Cc1cc(O)n2ncc(-c3cccc(N(C)C)c3)c2n1 [Compound M3] |
| > 100 µM | – | Cc1nc2c(C(=O)N(C)C)c(C)nn2c(S)c1Cc1ccccc1 [II] |

The next lines start with the compound.

| Structure (SMILES) | EC50 | Parkin Ligase reaction with the Activity-based Ubiquitin vinyl sulfone probe |
| --- | --- | --- |
| Cc1nc2c(-c3ccccc3)c(C)nn2c(S)c1Cc1ccccc1 [Compound A, 6-benzyl-2,5-dimethyl-3-phenylpyrazolo[1,5-a]pyrimidine-7-thiol] | 0.4 µM and 3.1 µM and 0.7 µM | increases |
| Cc1nc2c(-c3ccccc3)c(C)nn2c(O)c1Cc1ccncc1 [Compound X, 2,5-dimethyl-3-phenyl-6-(4-pyridylmethyl)pyrazolo[1,5-a]pyrimidin-7-ol] | > 100 µM | – |
| Cc1nc2c(C3CCN(C)CC3)c(C)nn2c(S)c1Cc1ccccc1 [Compound N3] | > 100 µM | – |
| Cc1nc2c(C(F)(F)F)c(C)nn2c(S)c1Cc1ccccc1 [LL] | 34.1 µM | – |
| Cc1nc2c(C#N)c(C)nn2c(S)c1Cc1ccccc1 [OO] | > 100 µM | – |
| Cc1nn2c(S)c3c(nc2c1-c1ccccc1)CCOC3 [WW] | 71 µM | – |
| Cc1nn2c(S)c3c(nc2c1-c1ccccc1)COC3 [XX] | 55.6 µM | – |
| CNc1c2c(nc3c(-c4ccccc4)c(C)nn13)CCN(C)C2 [YY] | > 100 µM | – |
| Cc1nc2c(C3CCN(C)CC3)c(C)nn2c(O)c1Cc1ccccc1 [Compound O3] | > 100 µM | – |
| Cc1cc2nc(C)c(Cc3ccc(Cl)cc3)c(O)n2n1 [Compound P, 6-[(4-chlorophenyl)methyl]-2,5-dimethyl-pyrazolo[1,5-a]pyrimidin-7-ol] | 61.4 µM | – |
| Cc1nn2c(O)c(Cc3ccccc3)cnc2c1-c1ccccc1 [Compound V, 6-benzyl-2-methyl-3-phenyl-pyrazolo[1,5-a]pyrimidin-7-ol] | > 100 µM | – |
| Cc1nc2c(-c3cccnc3)c(C)nn2c(O)c1Cc1ccccc1 [Compound L3] | > 100 µM | – |
| Cc1cc(C)c2c(n1)nn1c(O)c(Cc3ccccc3)c(C)nc21 [NN] | > 100 µM | – |
| Cc1nc2c(-c3ccncc3)c(C)nn2c(S)c1Cc1ccccc1 [MM] | 7.6 µM | – |
| Cc1nc2c(-c3ccccc3)c(C)nn2c(S)c1Cc1ccncc1 [Compound AA, 2,5-dimethyl-3-phenyl-6-(4-pyridylmethyl)pyrazolo[1,5-a]pyrimidine-7-thiol] | 10.9 µM | – |
| Cc1nc2c(-c3ccccc3)c(C)nn2c(O)c1Cc1ccccn1 [Compound Y, 2,5-dimethyl-3-phenyl-6-(2-pyridylmethyl)pyrazolo[1,5-a]pyrimidin-7-ol] | > 100 µM | – |
| Cc1nc2c(C(=O)N(C)C)c(C)nn2c(O)c1Cc1ccccc1 [EE] | > 100 µM | – |
| Cc1nc2c(-c3ccccc3)c(C)nn2c(O)c1Cc1ccccc1 [T] | 49.1 µM | – |
| Cc1nc2c(-c3ccccn3)c(C)nn2c(S)c1Cc1ccccc1 [HH] | 74.2 µM | – |
| Cc1nn2c(S)c(Cc3ccccc3)cnc2c1-c1ccccc1 [Compound DD, 6-benzyl-2-methyl-3-phenyl-pyrazolo[1,5-a]pyrimidin-7-thiol] | 6.5 µM | – |
| Cc1cc2nc(C)c(Cc3ccc(Cl)cc3)c(S)n2n1 [Compound R, 6-[(4-chlorophenyl)methyl]-2,5-dimethyl-pyrazolo[1,5-a]pyrimidine-7-thiol] | 18.2 µM | – |
| Cc1nn2c(O)cc(C(C)(C)C)nc2c1-c1ccc(Cl)cc1 [F] | 16.7 µM | – |
| Cc1nc2c(-c3ccccn3)c(C)nn2c(O)c1Cc1ccccc1 [FF] | 17.8 µM | – |
